Data from the NIST ThermoML archive (doi:10.1021/acs.jced.9b00026).

Test: wn = mass fraction of the nth substance listed
Details: for surface tension liquid-gas: Ring tensiometer; for mass density: 101 kPa, Liquid, Vibrating tube method

CSCC[C@H](N)C(=O)O [L-methionine] + O
Details | mass density, w1 = 0.005 [kg/m3] | surface tension liquid-gas, w1 = 0.005 [mN/m] | surface tension liquid-gas, w1 = 0.01 [mN/m] | surface tension liquid-gas, w1 = 0.02 [mN/m] | surface tension liquid-gas, w1 = 0.03 [mN/m] | surface tension liquid-gas, w1 = 0.04001 [mN/m]
298 K | 998.5 | 71.39 | 71.3 | 71.02 | 70.77 | 70.61
308 K | – | 69.89 | 69.69 | 69.45 | 69.15 | 68.9
318 K | – | 68.4 | 68.3 | 68.06 | 67.74 | 67.28
328 K | – | 66.65 | 66.56 | 66.32 | 65.78 | 64.97

O [water] + N[C@@H](CO)C(=O)O
w2 = 0
Details | surface tension liquid-gas [mN/m]
298 K | 71.46
308 K | 69.71
318 K | 68.51
328 K | 66.66

CC(C)[C@H](N)C(=O)O [L-valine] + O
Details | mass density, w1 = 0.005 [kg/m3] | surface tension liquid-gas, w1 = 0.005 [mN/m] | surface tension liquid-gas, w1 = 0.01 [mN/m] | surface tension liquid-gas, w1 = 0.02 [mN/m] | surface tension liquid-gas, w1 = 0.03 [mN/m] | surface tension liquid-gas, w1 = 0.04 [mN/m]
298 K | 998.1 | 70.53 | 70.5 | 69.48 | 68.4 | 67.12
308 K | – | 69.19 | 68.93 | 68.17 | 67.08 | 66.41
318 K | – | 67.61 | 67.61 | 66.54 | 65.36 | 64.53
328 K | – | 66.3 | 66.02 | 65.14 | 63.84 | 63.26

O [water] + O=C(O)[C@@H]1CCCN1
w2 = 0
Details | surface tension liquid-gas [mN/m]
298 K | 71.61
308 K | 70.1
318 K | 68.56
328 K | 66.76

O=C(O)[C@@H]1CCCN1 [L-proline] + O
Details | mass density, w1 = 0.02 [kg/m3] | surface tension liquid-gas, w1 = 0.01996 [mN/m] | surface tension liquid-gas, w1 = 0.03996 [mN/m] | surface tension liquid-gas, w1 = 0.05995 [mN/m] | surface tension liquid-gas, w1 = 0.07996 [mN/m] | surface tension liquid-gas, w1 = 0.09995 [mN/m]
298 K | 1002.6 | 71.56 | 71.56 | 71.55 | 71.5 | 71.45
308 K | – | 70.14 | 70.13 | 70.12 | 70.05 | 69.95
318 K | – | 68.51 | 68.51 | 68.46 | 68.44 | 68.4
328 K | – | 66.8 | 66.79 | 66.75 | 66.67 | 66.46

O [water] + CSCC[C@H](N)C(=O)O
w2 = 0
Details | surface tension liquid-gas [mN/m]
298 K | 71.52
308 K | 69.94
318 K | 68.54
328 K | 66.78

NC(=O)CC[C@H](N)C(=O)O [L-glutamine] + O
Details | mass density, w1 = 0.005 [kg/m3] | surface tension liquid-gas, w1 = 0.00499 [mN/m] | surface tension liquid-gas, w1 = 0.00998 [mN/m] | surface tension liquid-gas, w1 = 0.01501 [mN/m] | surface tension liquid-gas, w1 = 0.02001 [mN/m] | surface tension liquid-gas, w1 = 0.02499 [mN/m] | surface tension liquid-gas, w1 = 0.02999 [mN/m]
298 K | 998.8 | 71.43 | 71.49 | 71.53 | 71.55 | 71.55 | 71.55
308 K | – | 69.29 | 69.65 | 69.78 | 69.89 | 69.96 | 70.02
318 K | – | 68.34 | 68.42 | 68.59 | 68.58 | 68.64 | 68.67
328 K | – | 66.55 | 66.69 | 66.76 | 66.85 | 66.98 | 67.04
